Each block holds one molecule with its values, some of them ahead of it.
Columns and labels:
ApoE3 Leiden mice = experiment: cuff-induced neointimal thickening in femoral artery; assay type: in vivo, mouse; conditions: for lumen size (HPS stained vessel segments): vs control group A; for intima media ratio: vs control group
Source text: Neointimal and medial thickening is an early and essential stage in the development of atherosclerotic lesions and an essential component of restenosis. It is accompanied by fibrotic changes in the neointima and media of the vascular wall. This study evaluated the role of blocking SSAO in fibrotic disease by evaluating the effect of systemic delivery (by daily ip injection) of a small molecule SSAO inhibitor (mofegiline, BTT-2089) on cuff-induced neointimal thickening (cuff-induced stenosis) in the femoral artery of ApoE3 Leiden mice that received a moderate western type diet.
Methods: 40 male ApoE3*Leiden mice (age 12 weeks) were fed a mildly hypercholesterolemic diet for 3 weeks prior to surgical cuff placement. Treatment was daily ip injections with 1) vehicle; 2) dexamethasone in drinking water at 9 mg/I; 3) daily ip injections of BTT-2089 at 10 mg/kg; 4) BTT-2089 at 30 mg/kg, all started one day prior to surgery and continued during the experimental period. At day 0 surgery was performed, i.e. a non-constricting cuff (2-3 mm in length) was placed around both femoral arteries of the mice. 10 mice of each group were sacrificed after 2 weeks for histomorphometric analysis to quantify the inhibition of accelerated atherosclerotic lesions and neointima formation. […] This was reflected in the increased lumen size in examples of HPS stained vessel segments in SSAO inhibitor treated groups when compared to a control group (FIG. 12).
A second study, in the same model, was performed with another SSAO inhibitor from a chemical class distinct from BTT-2089. This hydrazine based inhibitor (BTT-2079) was dosed at a level of 10 mg/kg by daily i.p injection and compared with BTT-2089 at 30 mg/kg. In all other respects the study was performed in the same manner except that the dexamethasone control group was omitted. […] Vascular integrity was not affected.

C57BL/6J mice = experiment: tobacco smoke induced mouse model of COPD, BAL cell counts; assay type: in vivo; conditions: for reduction of total number of cells in BAL: 5 mg/kg orally once daily 11 days, 1 h prior to TS
Procedure: C57BL/6J mice were exposed once daily to tobacco smoke (TS) for 11 consecutive days resulting in pulmonary inflammation 24 hours following the final TS exposure. After 11 days the response comprised of significant increases in macrophages, epithelial cells, eosinophils, neutrophils and lymphocytes.
Mice were randomly divided into study groups (n=10) and treated with a vehicle (5 ml/kg PBS pH 7.4+0.1% Polysorbate 80) or mouse monoclonal anti-VAP-1 antibody (3 mg/kg or 9 mg/kg BTT-1029 in the vehicle) intravenously on Days −1, 3, 6, and 9 at 4 h post TS exposure. Another group (n=10) received the vehicle intravenously and was exposed to air for an equivalent length of time. Two further groups of mice (n=10) received another vehicle (0.5% carboxymethylcellulose, sodium salt (CMC) in sterile water) or a reference compound (5 mg/kg Roflumilast in 0.5% CMC) orally once a day for 11 consecutive days at 1 h prior to each TS exposure. A final group (n=10) received the oral vehicle (0.5% CMC) and was exposed to air for an equivalent length of time.
All results were presented as individual data points for each animal and the mean value calculated for each group. Where tests for normality were positive the data initially was subjected to a one way analysis of variance test (ANOVA), followed by a Bonferroni correction for multiple comparisons in order to test for significance between treatment groups. A “p” value of ≤0.05 was considered to be statistically significant.
All data was also subjected to the Bartlets test for equal variances and for the majority of studies variances were generally equal, however as occurred in this study, occasionally some treatment groups would give a positive result. Non parametric analyses were therefore also used. As the data was normally distributed, parametric analyses (ANOVA) were quoted.
Percentage inhibitions were automatically calculated within the Excel spreadsheets for the cell data using the formula below: […]

[1] = first study, 10 mg/kg ip daily, 2 weeks, vs NaCl 0.9% control
[2] = first study, 30 mg/kg ip daily, 2 weeks, vs NaCl 0.9% control
[3] = second study, 30 mg/kg i.p. daily
[4] = second study, 10 mg/kg i.p. daily

vascular integrity (ApoE3 Leiden mice; [3]): not affected
Compound: NC/C(=C/F)CCc1ccc(F)cc1 [BTT-2089, (E)-2-(4-fluorophenethyl)-3-fluoroallylamine]
media formation (ApoE3 Leiden mice; [1]): significant reduction
neointima formation (ApoE3 Leiden mice; [1]): significant reduction
lumen size (HPS stained vessel segments) (ApoE3 Leiden mice; first study, 10 mg/kg): increased
media formation (ApoE3 Leiden mice; [2]): significant reduction
neointima formation (ApoE3 Leiden mice; [2]): significant reduction
lumen size (HPS stained vessel segments) (ApoE3 Leiden mice; first study, 30 mg/kg): increased
lumen area (ApoE3 Leiden mice; [3]): No significant changes
media area (ApoE3 Leiden mice; [3]): No significant changes
neointima formation (ApoE3 Leiden mice; [3]): significant reduction
percentage lumen stenosis (ApoE3 Leiden mice; [3]): significant reduction
vessel wall diameter (ApoE3 Leiden mice; [3]): No significant changes
intima media ratio (ApoE3 Leiden mice; [3]): significantly less

vascular integrity (ApoE3 Leiden mice; [4]): not affected
Compound: CN(N)[C@H](c1ccccc1)[C@@H](O)c1ccccc1 [BTT-2079, (1S,2R)-2-(1-methylhydrazino)-1,2-diphenylethanol]
lumen area (ApoE3 Leiden mice; [4]): No significant changes
media area (ApoE3 Leiden mice; [4]): No significant changes
neointima formation (ApoE3 Leiden mice; [4]): significant reduction
percentage lumen stenosis (ApoE3 Leiden mice; [4]): only significantly less in the BTT-2089 30 mg/kg group
vessel wall diameter (ApoE3 Leiden mice; [4]): No significant changes
intima media ratio (ApoE3 Leiden mice; [4]): significantly less

Compound: O=C(Nc1c(Cl)cncc1Cl)c1ccc(OC(F)F)c(OCC2CC2)c1 [Roflumilast]
number of eosinophils in BAL (C57BL/6J mice; 5 mg/kg orally once daily): did not significantly reduce
number of macrophages in BAL (C57BL/6J mice; 5 mg/kg orally once daily): did not significantly reduce
reduction of epithelial cells in BAL (C57BL/6J mice; 5 mg/kg orally once daily): 51%
reduction of lymphocytes in BAL (C57BL/6J mice; 5 mg/kg orally once daily): 65%
reduction of neutrophils in BAL (C57BL/6J mice; 5 mg/kg orally once daily): 63%
reduction of total number of cells in BAL (C57BL/6J mice): 41%
reduction of total number of cells in BAL (C57BL/6J mice; listed as roflumilast): reduction
